Results taken from patent publication US20110053832A1, “NATURAL ANTIMICROBIAL COMPOSITION” (KRAFT FOODS GLOBAL BRANDS LLC, priority 2009, published 2011).

Assays:
Generic Yeast [1] = experiment: Inoculation (challenge) study in creamy salad dressing, generic yeast; format: cell-based; details: creamy salad dressing emulsion; for Treatment Performance Generic Yeast LDIC (Log Difference in micro levels as compared to the Initial Count): negative values represent a degree of inhibition; for Treatment Performance Generic Yeast LDPC (Log Difference in micro levels as compared to the Positive Control without treatment): negative values represent degree of inhibition
Source text: (§1) Turning now to the table, provided herein are formulations of a natural antimicrobial tested using a water continuous emulsion with a creamy texture and flavor, such as a creamy style salad dressing. It is noted that not only other types of water continuous emulsions, but also many other types of foods would also benefit from the antimicrobial nature of these formulations. As shown, the emulsion is standardized for a ratio of acid-to-moisture and salt-to-moisture values of a minimum of about 1.5 and about 4.8, respectively. When the emulsion was inoculated individually with cocktails of lactic acid bacteria, general yeast, or acid-tolerant yeast (such as Z. bailii) at approximately 4.0 logs, the emulsion spoils with microbial growth up to 7.0 logs. The overall pH of the present formulations can be anywhere from about 2.0 to about 6.0. Lower pH can often inhibit microbial growth, irrespective of other antimicrobial agents present. In the present formulations however, it was observed that the presence of antimicrobial agents such as cultured milks and/or organic acid salts were effective antimicrobial inhibitors, even at higher pH levels. High concentrations of undissociated organic acids can produce greater microbial inhibition. Increasing pH is associated with decreasing concentrations of undissociated acid. Thus, the microbial inhibition in a food that approaches a pH of 6.0 is unexpected.
(§2) The label LDPC indicates the Log Difference in micro levels as compared to the Positive Control without treatment (negative values represent degree of inhibition). The label LDIC indicates the Log Difference in micro levels as compared to the Initial Count or micro level of that treatment (negative values represent a degree of inhibition).
(§3) Two levels of Ca-Acetate alone and in combination with two levels of nisin and a nisin containing cultured ingredient were compared to determine their effect on typical spoilage (generic) yeast, the preservative resistant yeast, Z. bailii, and Lactobacillus.
(§4) Specifically, the samples were subjected to three different inocula (at log CFU 3-4) that contained microorganisms previously shown to spoil salad dressing. These included a cocktail of seven strains comprising various genera of yeast not known to be preservative resistant, a three strain cocktail of the preservative resistant Zygosaccharomyces bailii, and a three strain cocktail of Lactobacillus spp. (L. plantarum, L. fermentum, L. buchneri). The sample was then incubated at 22 degrees Celsius, and tested weekly for four weeks for the presence of these microorganisms.

Z. bailii = experiment: Inoculation (challenge) study in creamy salad dressing, acid-tolerant yeast Z. bailii; format: cell-based, Zygosaccharomyces bailii; details: for inhibition of Z. bailii (in words): Experiments 1-4; for Treatment Performance Z. bailii LDIC (Log Difference in micro levels as compared to the Initial Count) / Treatment Performance Z. bailii LDPC (Log Difference in micro levels as compared to the Positive Control without treatment): creamy salad dressing emulsion; for Treatment Performance Z. bailii LDIC (Log Difference in micro levels as compared to the Initial Count): negative values represent a degree of inhibition; for Treatment Performance Z. bailii LDPC (Log Difference in micro levels as compared to the Positive Control without treatment): negative values represent degree of inhibition
Source text: as §1, §2, §3, §4

Generic Yeast [2] = experiment: Inoculation (challenge) study in creamy salad dressing, generic yeast; format: cell-based; details: Experiments 1-4
Lactobacillus [3] = experiment: Inoculation (challenge) study in creamy salad dressing, Lactobacillus / lactic acid bacteria; format: cell-based, Lactobacillus spp. (L. plantarum, L. fermentum, L. buchneri); details: for Treatment Performance Lactobacillus LDIC (Log Difference in micro levels as compared to the Initial Count) / Treatment Performance Lactobacillus LDPC (Log Difference in micro levels as compared to the Positive Control without treatment): creamy salad dressing emulsion; for Treatment Performance Lactobacillus LDIC (Log Difference in micro levels as compared to the Initial Count): negative values represent a degree of inhibition; for Treatment Performance Lactobacillus LDPC (Log Difference in micro levels as compared to the Positive Control without treatment): negative values represent degree of inhibition
Source text: as §1, §2, §3, §4

Lactobacillus [4] = experiment: as above; format: cell-based, Lactobacillus spp. (L. plantarum, L. fermentum, L. buchneri); details: Experiments 1-4
[5] = listed as three percent Ca-Acetate
[6] = listed as Three percent Na-Acetate

Compound | Treatment Performance Generic Yeast LDIC (Log Difference in micro levels as compared to the Initial Count) (Generic Yeast [1]) [Log] | Treatment Performance Generic Yeast LDPC (Log Difference in micro levels as compared to the Positive Control without treatment) (Generic Yeast [1]) [Log] | Treatment Performance Z. bailii LDIC (Log Difference in micro levels as compared to the Initial Count) (Z. bailii) [Log] | Treatment Performance Z. bailii LDPC (Log Difference in micro levels as compared to the Positive Control without treatment) (Z. bailii) [Log] | Treatment Performance Lactobacillus LDIC (Log Difference in micro levels as compared to the Initial Count) (Lactobacillus [3]) [Log] | Treatment Performance Lactobacillus LDPC (Log Difference in micro levels as compared to the Positive Control without treatment) (Lactobacillus [3]) [Log] | further results
CC(=O)[O-].CC(=O)[O-].[Ca+2] [3% Ca acetate, calcium (Ca) acetate] | −1 | −3 | 1.5 | 0.5 | −2.5 | −2.5 | Treatment Performance Generic Yeast LDIC (Log Difference in micro levels as compared to the Initial Count) (Generic Yeast [1]; listed as Ca acetate (high)): −2 Log; Treatment Performance Generic Yeast LDPC (Log Difference in micro levels as compared to the Positive Control without treatment) (Generic Yeast [1]; listed as Ca acetate (high)): −4 Log; inhibition of Z. bailii (in words) (Z. bailii; listed as 3 percent Ca-Acetate): needed to inhibit; inhibition of Z. bailii (in words) (Z. bailii; [5]): but not Z. bailii; Treatment Performance Z. bailii LDIC (Log Difference in micro levels as compared to the Initial Count) (Z. bailii; listed as Ca acetate (high)): 0.5 Log; Treatment Performance Z. bailii LDPC (Log Difference in micro levels as compared to the Positive Control without treatment) (Z. bailii; listed as Ca acetate (high)): −1.5 Log; inhibition of general yeast (in words) (Generic Yeast [2]; [5]): inhibited the growth; inhibition of lactic acid bacteria / Lactobacillus (in words) (Lactobacillus [3]; Experiments 1-4): inhibited the growth; Treatment Performance Lactobacillus LDIC (Log Difference in micro levels as compared to the Initial Count) (Lactobacillus [3]; listed as Ca acetate (high)): 0.5 Log; Treatment Performance Lactobacillus LDPC (Log Difference in micro levels as compared to the Positive Control without treatment) (Lactobacillus [3]; listed as Ca acetate (high)): 1.5 Log
CC(=O)[O-].[Na+] [3% Na acetate, sodium (Na) acetate] | −3.5 | 0 | −0.5 | −2 | −3.5 | 0 | Treatment Performance Generic Yeast LDIC (Log Difference in micro levels as compared to the Initial Count) (Generic Yeast [1]; listed as 3% Na Ac): 1 Log; Treatment Performance Generic Yeast LDPC (Log Difference in micro levels as compared to the Positive Control without treatment) (Generic Yeast [1]; listed as 3% Na Ac): −0.5 Log; inhibition of Z. bailii (in words) (Z. bailii; listed as 3 percent Na-Acetate): significant antimycotic inhibition; inhibition of Z. bailii (in words) (Z. bailii; [6]): inhibited all of the tested spoilage organisms; Treatment Performance Z. bailii LDIC (Log Difference in micro levels as compared to the Initial Count) (Z. bailii; listed as 3% Na Ac): −1 Log; Treatment Performance Z. bailii LDPC (Log Difference in micro levels as compared to the Positive Control without treatment) (Z. bailii; listed as 3% Na Ac): −3 Log; inhibition of general yeast (in words) (Generic Yeast [2]; listed as 3 percent Na-Acetate): did not inhibit; inhibition of general yeast (in words) (Generic Yeast [2]; [6]): inhibited all of the tested spoilage organisms; inhibition of lactic acid bacteria / Lactobacillus (in words) (Lactobacillus [4]; listed as 3 percent Na-Acetate): did not inhibit; inhibition of lactic acid bacteria / Lactobacillus (in words) (Lactobacillus [4]; [6]): inhibited all of the tested spoilage organisms
CC(=O)[O-].CC(=O)[O-].[Ca+2] [Ca acetate (mid), calcium (Ca) acetate] | −0.5 | −2.5 | 2 | 0.5 | −1.5 | −0.5 | inhibition of general yeast (in words) (Generic Yeast [2]; listed as 1.5 percent Ca-Acetate): needed to inhibit
Nisin [Nisin (high)] | 3 | 1.5 | 2 | 0 | 0 | −2.5 | –
Nisin [Nisin (mid)] | 3.5 | 1.5 | 2 | 0 | −1 | −2.5 | –
